# In patent US9481677B2, “Biaryl ether sulfonamides and their use as therapeutic agents” (XENON PHARMACEUTICALS INC., priority 2011, dated 2016):
# pIC50: −log10 of the molar value.
# Target: Nav1.7 (Homo sapiens (Human), UniProt Q15858)
# Assay: Patch voltage clamp electrophysiology, block of inactivated-state Nav1.7 in HEK-293 cells
# Type: cell-based
# Settings: affinity for the inactivated state; HEK-293 cells with β1 subunit; held at -60 mV; read-out: NaV1.7 (IC50 class)
# Experimental: Patch voltage clamp electrophysiology allows for the direct measurement and quantification of block of voltage-gated sodium channels (Nav's), and allows the determination of the time- and voltage-dependence of block which has been interpreted as differential binding to the resting, open, and inactivated states of the sodium channel (Hille, B., Journal of General Physiology (1977), 69: 497-515).
# The following patch voltage clamp electrophysiology studies were performed on representative compounds of the invention using human embryonic kidney cells (HEK), permanently transfected with an expression vector containing the full-length cDNA coding for the desired human sodium channel α-subunit, grown in culture media containing 10% FBS, 1% PSG, and 0.5 mg/mL G418 at 37° C. with 5% CO2. […] Nav1.7 and Nav1.5 cDNAs (NM_002977 and AC137587; SCN5A, respectively) were stably expressed in HEK-293 cells. The β1 subunit was coexpressed only in the Nav1.7 cell line.
# Sodium currents were measured using the patch clamp technique in the whole-cell configuration using either a PatchXpress automated voltage clamp or manually using an Axopatch 200B (Axon Instruments) or Model 2400 (A-M systems) amplifier. […] The pipette was filled with a solution comprised of: 5 mM NaCl, 10 mM CsCl, 120 mM CsF, 0.1 mM CaCl2, 2 mM MgCl2, 10 mM HEPES, 10 mM EGTA; and adjusted to pH 7.2 with CsOH. The external solution had the following composition: 140 mM NaCl, 5 mM KCl, 2 mM CaCl2, 1 mM MgCl2, 10 mM HEPES; and adjusted to pH 7.4 with NaOH. In some studies, the external sodium was reduced by equimolar replacement with choline. Osmolarity in the CsF internal and NaCl external solutions was adjusted to 300 mOsm/kg and 310 mOsm/kg with glucose, respectively. All recordings were performed at ambient temperature in a bath chamber with a volume of 150 μL. Control sodium currents were measured in 0.5% DMSO. Controls and representative compounds of the invention were applied to the recording chamber through a 4-pinch or 8-pinch valve bath perfusion system manufactured by ALA Scientific Instruments.
# Currents were recorded at 40 kHz sampling frequency, filtered at […], and stored using a Digidata-1322A analogue/digital interface with the pClamp software (Axon Instruments). Series resistance compensation was applied (60-80%). […] All statistics in this study are given as mean±SD.
# The membrane potential was maintained at a voltage where inactivation of the channel is complete (which was −60 mV for both Nav1.7 and Nav1.5). The voltage is then stepped back to a very negative (Vhold=−150 mV) voltage for 20 ms and then a test pulse is applied to quantify the compound block. […] The percent decrease in sodium current following wash-on of compound was taken as the percent block of sodium channels.
# The Example numbers provided in Table 1 and Table 2 correspond to the Examples herein.
# Nav1.7, sequence (Q15858 other isoform, or with tags, fused parts or gaps): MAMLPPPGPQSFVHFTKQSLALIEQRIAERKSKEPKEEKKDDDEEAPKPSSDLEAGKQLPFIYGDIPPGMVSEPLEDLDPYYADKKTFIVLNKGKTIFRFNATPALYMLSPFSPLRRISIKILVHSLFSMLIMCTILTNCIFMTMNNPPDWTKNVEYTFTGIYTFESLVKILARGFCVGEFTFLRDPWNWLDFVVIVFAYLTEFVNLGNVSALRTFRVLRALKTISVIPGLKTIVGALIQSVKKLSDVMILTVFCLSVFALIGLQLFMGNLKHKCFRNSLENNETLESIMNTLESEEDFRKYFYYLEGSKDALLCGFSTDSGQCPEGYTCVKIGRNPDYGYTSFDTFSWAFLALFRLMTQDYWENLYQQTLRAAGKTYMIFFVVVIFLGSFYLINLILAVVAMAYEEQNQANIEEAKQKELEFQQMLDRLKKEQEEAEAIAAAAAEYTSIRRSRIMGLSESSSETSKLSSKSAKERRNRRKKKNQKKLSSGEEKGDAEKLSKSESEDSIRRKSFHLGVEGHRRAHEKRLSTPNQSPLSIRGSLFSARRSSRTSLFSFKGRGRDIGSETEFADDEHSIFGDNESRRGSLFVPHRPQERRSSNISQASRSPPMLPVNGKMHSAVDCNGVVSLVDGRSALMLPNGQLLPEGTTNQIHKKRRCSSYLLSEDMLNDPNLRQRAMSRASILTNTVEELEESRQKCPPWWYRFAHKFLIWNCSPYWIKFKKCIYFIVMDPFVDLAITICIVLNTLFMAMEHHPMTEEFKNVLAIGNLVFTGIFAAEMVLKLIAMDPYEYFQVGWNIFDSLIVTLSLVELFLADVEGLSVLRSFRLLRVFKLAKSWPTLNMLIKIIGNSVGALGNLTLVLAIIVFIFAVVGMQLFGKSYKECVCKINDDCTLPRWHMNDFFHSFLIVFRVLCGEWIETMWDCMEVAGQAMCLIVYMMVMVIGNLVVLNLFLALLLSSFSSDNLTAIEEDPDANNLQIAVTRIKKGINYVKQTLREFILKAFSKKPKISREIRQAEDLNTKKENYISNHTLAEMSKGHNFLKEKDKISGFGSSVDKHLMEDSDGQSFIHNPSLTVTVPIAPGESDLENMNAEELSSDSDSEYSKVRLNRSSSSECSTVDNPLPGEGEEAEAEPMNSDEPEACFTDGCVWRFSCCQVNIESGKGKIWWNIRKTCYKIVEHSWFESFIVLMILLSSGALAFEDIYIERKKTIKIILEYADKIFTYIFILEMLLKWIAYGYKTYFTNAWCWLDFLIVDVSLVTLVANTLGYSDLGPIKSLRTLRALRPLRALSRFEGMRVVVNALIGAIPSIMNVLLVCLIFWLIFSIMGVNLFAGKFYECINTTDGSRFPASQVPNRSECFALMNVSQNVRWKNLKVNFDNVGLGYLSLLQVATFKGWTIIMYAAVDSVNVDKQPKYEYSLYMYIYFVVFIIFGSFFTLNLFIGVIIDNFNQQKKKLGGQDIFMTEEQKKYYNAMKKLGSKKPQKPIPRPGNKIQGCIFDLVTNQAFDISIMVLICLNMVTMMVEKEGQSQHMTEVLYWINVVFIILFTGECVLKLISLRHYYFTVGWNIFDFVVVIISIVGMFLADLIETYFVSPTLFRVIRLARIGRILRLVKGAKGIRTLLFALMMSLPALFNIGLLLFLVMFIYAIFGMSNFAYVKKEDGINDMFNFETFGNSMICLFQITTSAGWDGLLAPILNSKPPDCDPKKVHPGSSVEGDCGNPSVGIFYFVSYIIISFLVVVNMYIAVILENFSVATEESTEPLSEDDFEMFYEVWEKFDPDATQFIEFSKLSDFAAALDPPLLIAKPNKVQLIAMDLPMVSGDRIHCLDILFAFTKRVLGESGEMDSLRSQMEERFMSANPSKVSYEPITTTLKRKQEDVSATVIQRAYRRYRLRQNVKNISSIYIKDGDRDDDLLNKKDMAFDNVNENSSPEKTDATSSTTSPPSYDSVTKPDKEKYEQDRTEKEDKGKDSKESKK
# Nav1.7, sequence (Q07699 19-218 partner): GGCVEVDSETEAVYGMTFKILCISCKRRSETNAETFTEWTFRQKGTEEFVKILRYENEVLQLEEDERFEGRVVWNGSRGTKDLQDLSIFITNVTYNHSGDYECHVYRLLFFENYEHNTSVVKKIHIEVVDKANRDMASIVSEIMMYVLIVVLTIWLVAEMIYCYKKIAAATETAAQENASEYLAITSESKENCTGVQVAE
row,SMILES,pIC50
1,"Nc1noc2ccc(-c3cc(Cl)ccc3Oc3cc(F)c(S(=O)(=O)Nc4ncns4)c(F)c3)cc12 [Example 64, 4-(2-(3-aminobenzo[d]isoxazol-5-yl)-4-chlorophenoxy)-2,6-difluoro-N-(1,2,4-thiadiazol-5-yl)benzenesulfonamide]",≥ 7.00
2,"O=S(=O)(Nc1ncns1)c1cc(F)c(Oc2ccc(Cl)cc2-c2ccc3ocnc3c2)cc1F [Example 51, 4-(2-(benzo[d]oxazol-5-yl)-4-chlorophenoxy)-2,5-difluoro-N-(1,2,4-thiadiazol-5-yl)benzenesulfonamide]",≥ 7.00
3,"Nc1noc2ccc(-c3cc(Cl)ccc3Oc3cc(F)c(S(=O)(=O)Nc4cscn4)cc3F)cc12 [Example 49, 4-(2-(3-aminobenzo[d]isoxazol-5-yl)-4-chlorophenoxy)-2,5-difluoro-N-(thiazol-4-yl)benzenesulfonamide]",≥ 7.00
4,"O=S(=O)(Nc1ncns1)c1cc(F)c(Oc2ccc(Cl)cc2-c2ccc3[nH]c(C(F)(F)F)nc3c2)cc1F [Example 54, 4-(4-chloro-2-(2-(trifluoromethyl)-1H-benzo[d]imidazol-5-yl)phenoxy)-2,5-difluoro-N-(1,2,4-thiadiazol-5-yl)benzenesulfonamide]",≥ 7.00
5,"O=c1[nH]c2cc(-c3cc(Cl)ccc3Oc3cc(F)c(S(=O)(=O)Nc4ncns4)cc3F)ccc2o1 [Example 52, 4-(4-chloro-2-(2-oxo-2,3-dihydrobenzo[d]oxazol-5-yl)phenoxy)-2,5-difluoro-N-(1,2,4-thiadiazol-5-yl)benzenesulfonamide]",≥ 7.00
6,"Nc1cnc2ccc(-c3cc(Cl)ccc3Oc3cc(F)c(S(=O)(=O)Nc4ncns4)cc3F)cn12 [Example 42, 4-(2-(3-aminoimidazo[1,2-a]pyridin-6-yl)-4-chlorophenoxy)-2,5-difluoro-N-(1,2,4-thiadiazol-5-yl)benzenesulfonamide]",≥ 7.00
7,"O=c1[nH]c2ccc(-c3cc(Cl)ccc3Oc3cc(F)c(S(=O)(=O)Nc4ncns4)cc3F)cc2[nH]1 [Example 48, 4-(4-chloro-2-(2-oxo-2,3-dihydro-1H-benzo[d]imidazol-5-yl)phenoxy)-2,5-difluoro-N-(1,2,4-thiadiazol-5-yl)benzenesulfonamide]",≥ 7.00
8,"O=S(=O)(Nc1ncns1)c1cc(F)c(Oc2ccc(Cl)cc2-c2ncc3cnccn23)cc1F [Example 36, 4-(4-chloro-2-(imidazo[1,5-a]pyrazin-3-yl)phenoxy)-2,5-difluoro-N-(1,2,4-thiadiazol-5-yl)benzenesulfonamide]",5.00 to 6.00
9,"CN(C)c1noc2ccc(-c3cc(Cl)ccc3Oc3cc(F)c(S(=O)(=O)Nc4ncns4)cc3F)cc12 [Example 98, 4-(4-chloro-2-(3-(dimethylamino)benzo[d]isoxazol-5-yl)phenoxy)-2,5-difluoro-N-(1,2,4-thiadiazol-5-yl)benzenesulfonamide]",≥ 7.00
10,"O=S(=O)(Nc1ncns1)c1cc(F)c(Oc2ccc(Cl)cc2-c2ccc3nccnc3c2)cc1F [Example 59, 4-(4-chloro-2-(quinoxalin-6-yl)phenoxy)-2,5-difluoro-N-(1,2,4-thiadiazol-5-yl)benzenesulfonamide]",≥ 7.00
11,"Nc1noc2ccc(-c3cc(Cl)ccc3Oc3ccc(S(=O)(=O)Nc4ncns4)c(F)c3F)cc12 [Example 65, 4-(2-(3-aminobenzo[d]isoxazol-5-yl)-4-chlorophenoxy)-2,3-difluoro-N-(1,2,4-thiadiazol-5-yl)benzenesulfonamide]",≥ 7.00
12,"O=c1[nH]c2ccc(-c3cc(Cl)ccc3Oc3cc(F)c(S(=O)(=O)Nc4ncns4)cc3F)cc2o1 [Example 53, 4-(4-chloro-2-(2-oxo-2,3-dihydrobenzo[d]oxazol-6-yl)phenoxy)-2,5-difluoro-N-(1,2,4-thiadiazol-5-yl)benzenesulfonamide]",≥ 7.00
13,"NC(=O)c1cnc2ccc(-c3cc(Cl)ccc3Oc3cc(F)c(S(=O)(=O)Nc4ncns4)cc3F)cn12 [Example 46, 6-(2-(4-(N-(1,2,4-thiadiazol-5-yl)sulfamoyl)-2,5-difluorophenoxy)-5-chlorophenyl)imidazo[1,2-a]pyridine-3-carboxamide]",≥ 7.00
14,"Nc1noc2ccc(-c3cc(F)ccc3Oc3cc(F)c(S(=O)(=O)Nc4ncns4)cc3F)cc12 [Example 80, 4-(2-(3-aminobenzo[d]isoxazol-5-yl)-4-fluorophenoxy)-2,5-difluoro-N-(1,2,4-thiadiazol-5-yl)benzenesulfonamide]",≥ 7.00
15,"O=S(=O)(Nc1ncns1)c1cc(F)c(Oc2ccc(Cl)cc2-c2ccc3[nH]cnc3c2)cc1F [Example 73, 4-(2-(1H-benzo[d]imidazol-5-yl)-4-chlorophenoxy)-2,5-difluoro-N-(1,2,4-thiadiazol-5-yl)benzenesulfonamide]",≥ 7.00
16,"Nc1n[nH]c2ccc(-c3cc(Cl)ccc3Oc3cc(F)c(S(=O)(=O)Nc4ncns4)cc3F)cc12 [Example 45, 4-(2-(3-amino-1H-indazol-5-yl)-4-chlorophenoxy)-2,5-difluoro-N-(1,2,4-thiadiazol-5-yl)benzenesulfonamide]",≥ 7.00
17,"Cn1cnc2c(-c3cc(Cl)ccc3Oc3cc(F)c(S(=O)(=O)Nc4ncns4)cc3F)ncnc21 [Example 39, 4-(4-chloro-2-(9-methyl-9H-purin-6-yl)phenoxy)-2,5-difluoro-N-(1,2,4-thiadiazol-5-yl)benzenesulfonamide]",5.00 to 6.00
18,"O=S(=O)(Nc1ncns1)c1cc(F)c(Oc2ccc(Cl)cc2-c2ccnc3nccn23)cc1F [Example 31, 4-(4-chloro-2-(imidazo[1,2-a]pyrimidin-5-yl)phenoxy)-2,5-difluoro-N-(1,2,4-thiadiazol-5-yl)benzenesulfonamide]",≥ 7.00
19,"Cc1ccc(Oc2cc(F)c(S(=O)(=O)Nc3ncns3)cc2F)c(-c2ccc3oc(=O)[nH]c3c2)c1 [Example 82, 2,5-difluoro-4-(4-methyl-2-(2-oxo-2,3-dihydrobenzo[d]oxazol-5-yl)phenoxy)-N-(1,2,4-thiadiazol-5-yl)benzenesulfonamide]",≥ 7.00
20,"O=S(=O)(Nc1ncns1)c1cc(F)c(Oc2ccc(Cl)cc2-c2cnc3n2CCNC3)cc1F [Example 32, 4-(4-chloro-2-(5,6,7,8-tetrahydroimidazo[1,2-a]pyrazin-3-yl)phenoxy)-2,5-difluoro-N-(1,2,4-thiadiazol-5-yl)benzenesulfonamide]",6.00 to 7.00
21,"O=C1Cc2cc(-c3cc(Cl)ccc3Oc3cc(F)c(S(=O)(=O)Nc4ncns4)cc3F)ccc2N1 [Example 77, 4-(4-chloro-2-(2-oxoindolin-5-yl)phenoxy)-2,5-difluoro-N-(1,2,4-thiadiazol-5-yl)benzenesulfonamide]",≥ 7.00
22,"CNc1noc2ccc(-c3cc(Cl)ccc3Oc3cc(F)c(S(=O)(=O)Nc4ncns4)cc3F)cc12 [Example 69, 4-(4-chloro-2-(3-(methylamino)benzo[d]isoxazol-5-yl)phenoxy)-2,5-difluoro-N-(1,2,4-thiadiazol-5-yl)benzenesulfonamide]",≥ 7.00
23,"Nc1noc2ccc(-c3cc(Cl)ccc3Oc3cc(F)c(S(=O)(=O)Nc4ncccn4)cc3F)cc12 [Example 63, 4-(2-(3-aminobenzo[d]isoxazol-5-yl)-4-chlorophenoxy)-2,5-difluoro-N-(pyrimidin-2-yl)benzenesulfonamide]",≥ 7.00
24,"O=C1Cc2ccc(-c3cc(Cl)ccc3Oc3cc(F)c(S(=O)(=O)Nc4ncns4)cc3F)cc2N1 [Example 55, 4-(4-chloro-2-(2-oxoindolin-6-yl)phenoxy)-2,5-difluoro-N-(1,2,4-thiadiazol-5-yl)benzenesulfonamide]",≥ 7.00
25,"O=S(=O)(Nc1ncns1)c1cc(F)c(Oc2ccc(Cl)cc2-n2cnc3cncnc32)cc1F [Example 40, 4-(4-chloro-2-(9H-purin-9-yl)phenoxy)-2,5-difluoro-N-(1,2,4-thiadiazol-5-yl)-benzenesulfonamide]",5.00 to 6.00
26,"Nc1nc2ccc(-c3cc(Cl)ccc3Oc3cc(F)c(S(=O)(=O)Nc4ncns4)cc3F)cc2o1 [Example 57, 4-(2-(2-aminobenzo[d]oxazol-6-yl)-4-chlorophenoxy)-2,5-difluoro-N-(1,2,4-thiadiazol-5-yl)benzenesulfonamide]",≥ 7.00
27,"Nc1noc2ccc(-c3cc(Cl)ccc3Oc3cc(F)c(S(=O)(=O)Nc4ncns4)cc3F)cc12 [Example 44, 4-(2-(3-aminobenzo[d]isoxazol-5-yl)-4-chlorophenoxy)-2,5-difluoro-N-(1,2,4-thiadiazol-5-yl)benzenesulfonamide]",≥ 7.00
